pIC50: −log10 of the molar value.
Legend:
[1] = test system: p-SRC; assay: Inhibition of Src signaling pathway (Western Blot of p-SRC in A-431 cells); assay type: cell-based, Human
Description: The Western Blot method was used to detect the compound's inhibition of p-SRC in A-431 skin cancer cells (ATCC, CRL-1555) to evaluate the inhibitory effect of the compound on the SRC signaling pathway.
A-431 cells were cultured in DMEM medium containing 10% fetal bovine serum and grown at 37°C in a 5% CO2 incubator. 500,000 cells/well were seeded in a 12-well cell culture plate and cultured overnight at 37°C in a 5% CO2 incubator. The next day, the culture medium was replaced and different concentrations of the compound were added, with DMSO serving as a control. After the addition of the compounds, the culture plate was cultured for another 24 hours at 37°C in a 5% CO2 incubator. The cells were washed once with PBS, and lysed with RIPA lysis buffer (R0010, Solarbio) at low temperature for 30 minutes. Afterwards, the protein lysate was collected into a centrifuge tube, centrifuged at 14,000 g at 4°C for 10 minutes, and the supernatant was transferred to a new tube. The BCA protein concentration assay kit (P0009, Beyotime Biotechnology) was used to detect and calculate the protein concentration. A 5× protein loading buffer was used to quantify the protein of each sample consistently. The samples were boiled at 100°C for 5 minutes, and subjected to western blot to detect the level of p-SRC. […]

[2] = test system: actinic keratosis patient-derived cell HT 297.T; assay: Cell proliferation inhibition test, HT 297.T; assay type: cell-based, Human
Description: Human cutaneous squamous cell carcinoma cell A-431 (ATCC, CRL-1555) and actinic keratosis patient-derived cell HT 297.T (ATCC, CRL-7782) proliferation assays were used to detect the inhibitory effect of small molecular compounds on cell proliferation.
A-431 cells and HT 297.T cells were cultured in DMEM medium containing 10% fetal bovine serum and grown at 37°C in a 5% CO2 incubator. Cells on logarithmic phase were seeded into a 96-well cell culture plate at 1000 cells/well, 100 µL per well, and then cultured overnight at 37°C in a 5% CO2 incubator. The next day, 100 µL of gradient-diluted 2× test compound solution was added to each well, with DMSO serving as a positive control, and 10 µM staurosporine (Aladdin, S102392) was set as a negative control group. After the addition of the compounds, the culture plate was incubated for another 4 days at 37°C in a 5% CO2 incubator. After incubation, the Steady-Glo® luciferase assay system (Promega, G9243) was used according to the supplier's instructions to measure the fluorescence signal value on the Envision 2104 Multilabel Reader. The inhibition rate was calculated by the following formula, then the curve was plotted with the Log value of the inhibitor concentration as the X-axis and the inhibition rate as the Y-axis, and the IC50 was calculated using Graphpad 8.0. [formula] Table 41: Inhibition results of test compounds on proliferation activity of A-431 and HT 297.T cells

[3] = Human liver microsome stability test; assay type: in vitro ADME
Description: The human liver microsome stability test was performed by incubating the compound and human liver microsomes in vitro. First, the compound to be tested was prepared into a 10 mM stock solution in DMSO solvent, and then the compound was diluted to 0.5 mM with acetonitrile. Human liver microsomes (Corning) were diluted with PBS into a microsome/buffer solution, and the solution was used to dilute 0.5 mM compound into a working solution, in which the concentration of the compound was 1.5 µM, and the concentration of human liver microsomes was 0.75 mg/mL. A deep-well plate was taken, 30 µL of the working solution was added per well, and then 15 µL of pre-heated 6 mM NADPH solution was added thereto to initiate a reaction, and the reaction was incubated at 37°C. At 0, 5, 15, 30 and 45 min of the incubation, 135 µL of acetonitrile was added to the corresponding wells to terminate the reaction. After the reaction was terminated with acetonitrile at the last time point of 45 min, the deep-well plate was vortexed and shaken for 10 min (600 rpm), and then centrifuged for 15 min. After centrifugation, the supernatant was collected, and added with purified water in a ratio of 1:1 to perform LC-MS/MS detection. A ratio of a peak area of compound to a peak area of internal standard at each time point was obtained, and the peak area ratios of the compound at 5, 15, 30 and 45 min were compared with the peak area ratio at 0 min to calculate the remaining percentage of the compound at each time point. T1/2 was calculated by using GraphPad 5 software. Table 45: Results of human liver microsome stability test

[4] = Pharmacokinetic test in mice; assay type: in vivo
Description: For the pharmacokinetic test in mice, 3 male ICR mice, 20 to 25 g, were used, fasted overnight, and administered by tail vein injection (1 mg/kg or 5 mg/kg). Blood was collected before the administration, and at 15 min, 30 min, 1 hour, 2 hours, 4 hours, 8 hours, and 24 hours after the administration. Another 3 mice were taken and administered by oral gavage (5 mg/kg), and blood was collected before the administration, and at 15 min, 30 min, 1 hour, 2 hours, 4 hours, 8 hours, and 24 hours after the administration. Blood samples were centrifuged at 6800 g at 2 to 8°C for 6 min, and plasma was collected and stored at -80°C. The plasma at each time point was taken and added with an acetonitrile solution containing internal standard in 3 to 5 times the amount. The mixture was vortexed and mixed for 1 min, and centrifuged at 13,000 rpm at 4°C for 10 min. The supernatant was collected, added with water in 3 times the amount, and mixed. An appropriate amount of the mixture was taken for LC-MS/MS analysis. The main pharmacokinetic parameters were analyzed using WinNonlin 7.0 software with non-compartmental model. Table 43: Results 1 of pharmacokinetic tests in mice

[5] = in words, compared with the control compound
[6] = mouse, plasma, male ICR mice, intravenous injection administration (1 mg/kg)
[7] = mouse, plasma, male ICR mice, oral gavage administration (5 mg/kg)

Cc1cc(OCCN2C[C@H]3COC[C@H]3C2)ccc1-c1ccc(CC(=O)NCc2ccccc2)nc1 [Compound of Formula I, N-benzyl-2-(5-(2-methyl-4-(2-((3aR,6aS)-tetrahydro-1H-furo[3,4-c]pyrrol-5(3H)-yl)ethoxy)phenyl)pyridin-2-yl)acetamide]
phosphorylation of SRC ([1]; 80 nM, A-431 cells, 24 hours): significantly inhibit the phosphorylation of SRC | p-SRC inhibitory activity [1, 5]: better p-SRC inhibitory activity compared with the control compound | pIC50 ([2]; Homo sapiens, 96 h, 4 days incubation): 7.38 | inhibitory effect on HT 297.T cells ([2]; in words, versus control compound): significantly better than that of the control compound | half-life at 1 µM ([3]; human liver microsomes, NADPH, 37°C, 0-45 min): 17.2 min | metabolism by human liver microsomes ([3]; in words): metabolized quickly | metabolism in mice in vivo [4, 5]: rapid metabolism | AUC(0-t) [4, 6]: 430 ng·h/mL | clearance [4, 6]: 34.5 mL/min/kg | AUC(0-t) [4, 7]: 443 ng·h/mL | Cmax [4, 7]: 322 ng/mL
